Assay results reported in paper PMC10609013, “Solubility and Thermodynamic Analysis of Isotretinoin in Different (DMSO + Water) Mixtures” (Molecules, 2023).

Assays:
[1] = Apparent thermodynamic analysis of ITN dissolution (van't Hoff and Gibbs equations); assay type: physicochemical
Procedure: At the mean harmonic temperature (Thm), all apparent thermodynamic parameters for ITN were determined. The Thm was determined using the reported equation [51, 56]. […] The “van’t Hoff and Gibbs equations” were used to calculate these parameters. The ΔsolH^0 values for ITN (3) in various {DMSO (1) + H2O (2)} mixtures were calculated using Equation (10) and Thm = 308 K [47, 62]:(10) ∂lnxe/∂1/T−1/ThmP=−∆solH^0/R
The “ΔsolH^0” for ITN was derived using the graphed “van’t Hoff” plots between the ln xe values of ITN and 1/T−1/Thm .
Additionally, at Thm = 308 K, the ΔsolG^0 for ITN (3) in binary {DMSO (1) + H2O (2)} mixes was calculated using the Krug et al. methodology via Equation (11):(11) ∆solG^0=−RThm×intercept where, the “van’t Hoff plots” shown in Figure 5 were used to determine the intercept values for ITN (3) in binary mixtures of DMSO (1) and H2O (2).
By Equation (12), the ΔsolS^0 for ITN (3) in numerous {DMSO (1) + H2O (2)} mixtures was derived:(12) ∆solS^0=∆solH^0−∆solG^0/Thm

[2] = Shake flask solubility of ITN in {DMSO (1) + H2O (2)} mixes, HPLC; assay type: physicochemical; conditions: 101.1 kPa
Procedure: A series of {DMSO (1) + H2O (2)} solutions, with DMSO mass percentages ranging from 0.10 to 0.90, was examined. Three replicates of each {DMSO (1) + H2O (2)} combination were taken. ITN’s mole fraction solubility versus mass fraction of DMSO (m = 0.0–1.0) and neat DMSO and H2O was measured using a shake flask approach at 298.2–318.2 K and 101.1 kPa. In essence, the known amounts of each {DMSO (1) + H2O (2)} combination and neat DMSO and H2O were combined with extra ITN crystals in triplicate. The equilibrium was achieved by saturating the resultant mixes in a WiseBath® WSB shaking water bath (Model WSB-18/30/-45, Daihan Scientific Co. Ltd., Seoul, Korea) at a shaking speed of 100 rpm for 72 h. In order to evaluate the equilibrium time, the preliminary experiments were performed at different time intervals. […] The saturated solutions were again removed from the shaker after they had reached equilibrium and centrifuged for 30 min at 5000 rpm. A previously established environmentally friendly HPLC method was used to assess the ITN content after the supernatants were isolated and diluted (as required). The identification of ITN was carried out via a Nucleodur (dimensions: 150 mm × 4.6 mm and particle size: 5 μm) reversed-phase C18 analytical column at 298.2 K. The environmentally friendly mobile used was a binary mixture of ethyl acetate and ethanol (50:50% v v^−1). The mobile phase was delivered with a flow speed of 1 mL min^−1. The ITN measurements were performed at a wavelength of 354 nm. The sample volume was 20 μL, which was injected using a Waters autosampler. The Analytical GREEnness (AGREE) score was determined to evaluate the eco-friendliness nature of the HPLC method. The AGREE score was predicted to be 0.76 for the present HPLC method, indicating the eco-friendly nature of the HPLC method. ITN mole fraction solubilities (xe) were calculated using their standard formulae described in our previous work.

[3] = DMSO mass fraction m = 0.0, Thm = 308 K
[4] = DMSO mass fraction m = 0.1, Thm = 308 K
[5] = DMSO mass fraction m = 0.2, Thm = 308 K
[6] = DMSO mass fraction m = 0.3, Thm = 308 K
[7] = DMSO mass fraction m = 0.4, Thm = 308 K
[8] = DMSO mass fraction m = 0.5, Thm = 308 K
[9] = DMSO mass fraction m = 0.6, Thm = 308 K
[10] = DMSO mass fraction m = 0.7, Thm = 308 K
[11] = DMSO mass fraction m = 0.8, Thm = 308 K
[12] = DMSO mass fraction m = 0.9, Thm = 308 K
[13] = DMSO mass fraction m = 1.0, Thm = 308 K

ΔsolG^0 apparent standard Gibbs energy [1, 3]: 36.27 (0.43) kJ mol^−1 | ΔsolH^0 apparent standard enthalpy [1, 3]: 63.00 (0.76) kJ mol^−1 | ΔsolS^0 apparent standard entropy [1, 3]: 86.78 (1.12) J mol^−1 K^−1 | ΔsolG^0 apparent standard Gibbs energy [1, 4]: 33.20 (0.41) kJ mol^−1 | ΔsolH^0 apparent standard enthalpy [1, 4]: 57.15 (0.67) kJ mol^−1 | ΔsolS^0 apparent standard entropy [1, 4]: 77.75 (1.03) J mol^−1 K^−1 | ΔsolG^0 apparent standard Gibbs energy [1, 5]: 30.19 (0.39) kJ mol^−1 | ΔsolH^0 apparent standard enthalpy [1, 5]: 52.98 (0.63) kJ mol^−1 | ΔsolS^0 apparent standard entropy [1, 5]: 73.99 (1.00) J mol^−1 K^−1 | ΔsolG^0 apparent standard Gibbs energy [1, 6]: 27.15 (0.37) kJ mol^−1 | ΔsolH^0 apparent standard enthalpy [1, 6]: 46.19 (0.52) kJ mol^−1 | ΔsolS^0 apparent standard entropy [1, 6]: 61.83 (0.98) J mol^−1 K^−1 | ΔsolG^0 apparent standard Gibbs energy [1, 7]: 24.14 (0.36) kJ mol^−1 | ΔsolH^0 apparent standard enthalpy [1, 7]: 41.89 (0.48) kJ mol^−1 | ΔsolS^0 apparent standard entropy [1, 7]: 57.59 (0.92) J mol^−1 K^−1 | ΔsolG^0 apparent standard Gibbs energy [1, 8]: 21.13 (0.30) kJ mol^−1 | ΔsolH^0 apparent standard enthalpy [1, 8]: 35.40 (0.42) kJ mol^−1 | ΔsolS^0 apparent standard entropy [1, 8]: 46.31 (0.81) J mol^−1 K^−1 | ΔsolG^0 apparent standard Gibbs energy [1, 9]: 18.10 (0.26) kJ mol^−1 | ΔsolH^0 apparent standard enthalpy [1, 9]: 31.28 (0.40) kJ mol^−1 | ΔsolS^0 apparent standard entropy [1, 9]: 42.78 (0.74) J mol^−1 K^−1 | ΔsolG^0 apparent standard Gibbs energy [1, 10]: 15.10 (0.24) kJ mol^−1 | ΔsolH^0 apparent standard enthalpy [1, 10]: 23.95 (0.32) kJ mol^−1 | ΔsolS^0 apparent standard entropy [1, 10]: 28.74 (0.56) J mol^−1 K^−1 | ΔsolG^0 apparent standard Gibbs energy [1, 11]: 12.07 (0.20) kJ mol^−1 | ΔsolH^0 apparent standard enthalpy [1, 11]: 20.05 (0.28) kJ mol^−1 | ΔsolS^0 apparent standard entropy [1, 11]: 25.90 (0.48) J mol^−1 K^−1 | ΔsolG^0 apparent standard Gibbs energy [1, 12]: 9.078 (0.14) kJ mol^−1 | ΔsolH^0 apparent standard enthalpy [1, 12]: 13.35 (0.22) kJ mol^−1 | ΔsolS^0 apparent standard entropy [1, 12]: 13.87 (0.23) J mol^−1 K^−1 | ΔsolG^0 apparent standard Gibbs energy [1, 13]: 6.077 (0.09) kJ mol^−1 | ΔsolH^0 apparent standard enthalpy [1, 13]: 7.430 (0.10) kJ mol^−1 | ΔsolS^0 apparent standard entropy [1, 13]: 4.392 (0.10) J mol^−1 K^−1 | nature of dissolution ([1]; all {DMSO (1) + H2O (2)} mixes, including neat DMSO and H2O): endothermic and entropy-driven | xe experimental solubility ([2]; DMSO mass fraction m = 0.0, T = 298.2 K): 3.10 (0.07) × 10^−7 mole fraction | xe experimental solubility ([2]; DMSO mass fraction m = 0.0, T = 303.2 K): 4.60 (0.15) × 10^−7 mole fraction | xe experimental solubility ([2]; DMSO mass fraction m = 0.0, T = 308.2 K): 7.50 (0.18) × 10^−7 mole fraction | xe experimental solubility ([2]; DMSO mass fraction m = 0.0, T = 313.2 K): 1.10 (0.02) × 10^−6 mole fraction | xe experimental solubility ([2]; DMSO mass fraction m = 0.0, T = 318.2 K): 1.50 (0.03) × 10^−6 mole fraction | xe experimental solubility ([2]; DMSO mass fraction m = 0.1, T = 298.2 K): 1.12 (0.02) × 10^−6 mole fraction | xe experimental solubility ([2]; DMSO mass fraction m = 0.1, T = 303.2 K): 1.59 (0.03) × 10^−6 mole fraction | xe experimental solubility ([2]; DMSO mass fraction m = 0.1, T = 308.2 K): 2.45 (0.05) × 10^−6 mole fraction | xe experimental solubility ([2]; DMSO mass fraction m = 0.1, T = 313.2 K): 3.47 (0.06) × 10^−6 mole fraction | xe experimental solubility ([2]; DMSO mass fraction m = 0.1, T = 318.2 K): 4.61 (0.11) × 10^−6 mole fraction
Compound: CC1=C(/C=C/C(C)=C/C=C/C(C)=C\C(=O)O)C(C)(C)CCC1 [ITN, isotretinoin]
